Source: US10227336B2, “Pyrazole orexin receptor antagonists” (MERCK SHARP & DOHME CORP., priority 2014, dated 2019)

Legend:
human orexin-2 receptor = human orexin-2 receptor (Homo sapiens (Human), UniProt O43614); assay: FLIPR Ca2+ Flux Assay, hOX2R; format: cell-based; details: CHO cells expressing the human orexin-2 receptor; agonist 70 pM Ala-6,12 orexin-A
Procedure: The utility of the compounds in accordance with the present invention as orexin receptor OX1R and/or OX2R antagonists may be readily determined without undue experimentation by methodology well known in the art, including the “FLIPR Ca^2+ Flux Assay” (Okumura et al., Biochem. Biophys. Res. Comm. 280:976-981, 2001). In a typical experiment the OX1 and OX2 receptor antagonistic activity of the compounds of the present invention was determined in accordance with the following experimental method. For intracellular calcium measurements, Chinese hamster ovary (CHO) cells expressing the rat orexin-1 receptor or the human orexin-2 receptor, are grown in Iscove's modified DMEM containing 2 mM L-glutamine, […], 1% hypoxanthine-thymidine supplement, 100 U/ml penicillin, 100 μg/ml streptomycin and 10% heat-inactivated fetal calf serum (FCS). The cells are seeded at 20,000 cells/well into Becton-Dickinson black 384-well clear bottom sterile plates coated with poly-D-lysine. All reagents were from GIBCO-Invitrogen Corp. The seeded plates are incubated overnight at 37° C. and 5% CO2. Ala-6,12 human orexin-A as the agonist is prepared as a 1 mM stock solution in 1% bovine serum albumin (BSA) and diluted in assay buffer (HBSS containing 20 mM HEPES, 0.1% BSA and 2.5 mM probenecid, pH7.4) for use in the assay at a final concentration of 70 pM. Test compounds are prepared as 10 mM stock solution in DMSO, then diluted in 384-well plates, first in DMSO, then assay buffer. On the day of the assay, cells are washed 3 times with 100 μl assay buffer and then incubated for 60 min (37° C., 5% CO2) in 60 μl assay buffer containing 1 μM Fluo-4AM ester, 0.02% pluronic acid, and 1% BSA. The dye loading solution is then aspirated and cells are washed 3 times with 100 μl assay buffer. 30 μl of that same buffer is left in each well. Within the Fluorescent Imaging Plate Reader (FLIPR, Molecular Devices), test compounds are added to the plate in a volume of 25 μl, incubated for 5 min and finally 25 μl of agonist is added. Fluorescence is measured for each well at 1 second intervals for 5 minutes and the height of each fluorescence peak is compared to the height of the fluorescence peak induced by 70 pM Ala-6,12 orexin-A with buffer in place of antagonist. For each antagonist, IC50 value (the concentration of compound needed to inhibit 50% of the agonist response) is determined. Alternatively, compound potency can be assessed by a radioligand binding assay (described in Bergman et. al. Bioorg. Med. Chem. Lett. 2008, 18, 1425-1430) in which the inhibition constant (Ki) is determined in membranes prepared from CHO cells expressing either the OX1 or OX2 receptor. The intrinsic orexin receptor antagonist activity of a compound which may be used in the present invention may be determined by these assays.

hOX1R = hOX1R (Homo sapiens, UniProt O43613); assay: FLIPR Ca2+ Flux Assay, hOX1R; format: cell-based; details: CHO cells expressing orexin-1 receptor (head: hOX1R; method: rat); agonist 70 pM Ala-6,12 orexin-A
Procedure: The utility of the compounds in accordance with the present invention as orexin receptor OX1R and/or OX2R antagonists may be readily determined without undue experimentation by methodology well known in the art, including the “FLIPR Ca^2+ Flux Assay” (Okumura et al., Biochem. Biophys. Res. Comm. 280:976-981, 2001). In a typical experiment the OX1 and OX2 receptor antagonistic activity of the compounds of the present invention was determined in accordance with the following experimental method. […] The cells are seeded at 20,000 cells/well into Becton-Dickinson black 384-well clear bottom sterile plates coated with poly-D-lysine. All reagents were from GIBCO-Invitrogen Corp. The seeded plates are incubated overnight at 37° C. and 5% CO2. Ala-6,12 human orexin-A as the agonist is prepared as a 1 mM stock solution in 1% bovine serum albumin (BSA) and diluted in assay buffer (HBSS containing 20 mM HEPES, 0.1% BSA and 2.5 mM probenecid, pH7.4) for use in the assay at a final concentration of 70 pM. Test compounds are prepared as 10 mM stock solution in DMSO, then diluted in 384-well plates, first in DMSO, then assay buffer. On the day of the assay, cells are washed 3 times with 100 μl assay buffer and then incubated for 60 min (37° C., 5% CO2) in 60 μl assay buffer containing 1 μM Fluo-4AM ester, 0.02% pluronic acid, and 1% BSA. The dye loading solution is then aspirated and cells are washed 3 times with 100 μl assay buffer. 30 μl of that same buffer is left in each well. Within the Fluorescent Imaging Plate Reader (FLIPR, Molecular Devices), test compounds are added to the plate in a volume of 25 μl, incubated for 5 min and finally 25 μl of agonist is added. Fluorescence is measured for each well at 1 second intervals for 5 minutes and the height of each fluorescence peak is compared to the height of the fluorescence peak induced by 70 pM Ala-6,12 orexin-A with buffer in place of antagonist. For each antagonist, IC50 value (the concentration of compound needed to inhibit 50% of the agonist response) is determined. Alternatively, compound potency can be assessed by a radioligand binding assay (described in Bergman et. al. Bioorg. Med. Chem. Lett. 2008, 18, 1425-1430) in which the inhibition constant (Ki) is determined in membranes prepared from CHO cells expressing either the OX1 or OX2 receptor. The intrinsic orexin receptor antagonist activity of a compound which may be used in the present invention may be determined by these assays.

human orexin-2 receptor, sequence (O43614 whole entry): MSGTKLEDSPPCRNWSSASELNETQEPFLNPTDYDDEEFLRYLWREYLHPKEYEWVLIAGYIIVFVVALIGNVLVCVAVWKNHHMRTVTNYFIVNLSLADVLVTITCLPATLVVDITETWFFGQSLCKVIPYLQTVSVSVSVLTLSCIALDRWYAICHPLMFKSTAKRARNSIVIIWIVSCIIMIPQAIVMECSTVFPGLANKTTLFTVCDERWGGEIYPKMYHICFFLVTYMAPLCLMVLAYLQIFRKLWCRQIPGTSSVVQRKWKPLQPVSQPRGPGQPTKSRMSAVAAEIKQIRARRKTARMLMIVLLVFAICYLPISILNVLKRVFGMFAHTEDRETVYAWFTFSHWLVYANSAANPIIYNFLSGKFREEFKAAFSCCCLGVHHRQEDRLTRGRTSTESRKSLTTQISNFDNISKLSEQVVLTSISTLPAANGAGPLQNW

SMILES | IC50 (human orexin-2 receptor) [nM] | IC50 (hOX1R) [nM]
C[C@@H]1CC[C@@H](c2cnn(C3CC3)c2)CN1C(=O)c1ccccc1-n1nccn1 [Example 11, (2R,5S)-5-(1-Cyclopropyl-1H-pyrazol-4-yl)-2-methyl-1-{[2-(2H-1,2,3-triazol-2-yl)phenyl]carbonyl}piperidine] | 56 | > 10000
C[C@@H]1CC[C@@H](c2cnn(CC(F)F)c2)CN1C(=O)c1ccccc1-n1nccn1 [Example 6, (2R,5S)-5-[1-(2,2-difluoroethyl)-1H-pyrazol-4-yl]-2-methyl-1-{[2-(2H-1,2,3-triazol-2-yl)phenyl]carbonyl}piperidine] | 183 | > 10000
C[C@@H]1CC[C@@H](c2cnn(CC3CC3)c2)CN1C(=O)c1ccccc1-n1nccn1 [Example 3, (2R,5S)-5-[1-(cyclopropylmethyl)-1H-pyrazol-4-yl]-2-methyl-1-{[2-(2H-1,2,3-triazol-2-yl)phenyl]carbonyl}piperidine] | 124 | 7710
CC(C)n1cc([C@@H]2CC[C@@H](C)N(C(=O)c3ccccc3-n3ncnn3)C2)cn1 [Example 16, (2R,5S)-2-methyl-5-[1-(1-methylethyl)-1H-pyrazol-4-yl]-1-{[2-(2H-tetrazol-2-yl)phenyl]carbonyl}piperidine] | 259 | > 10000
C[C@@H]1CC[C@@H](c2cnn(C3CCCC3)c2)CN1C(=O)c1ccccc1-n1nccn1 [Example 4, (2R,5S)-5-(1-cyclopentyl-1H-pyrazol-4-yl)-2-methyl-1-{[2-(2H-1,2,3-triazol-2-yl)phenyl]carbonyl}piperidine] | 39 | 1430
CC(C)n1cc([C@@H]2CC[C@@H](C)N(C(=O)c3ccsc3-c3ncccn3)C2)cn1 [Example 13, 2[3-({(2R,5S)-2-methy1-5-[1-(1-methylethyl)-1H-pyrazol-4-yl]piperidin-1-yl}carbonyl)thiophen-2-yl]pyrimidine] | 155 | > 10000
C[C@@H]1CC[C@@H](c2cnn(C3CCOC3)c2)CN1C(=O)c1ccccc1-n1nccn1 (stereo partly drawn) [Example 9, (2R,5S)-2-methyl-5-[1-(tetrahydrofuran-3-yl)-1H-pyrazol-4-yl]-1-{[2-(2H-1,2,3-triazol-2-yl)phenyl]carbonyl}piperidine] | 600 | > 10000
C[C@@H]1CC[C@@H](c2cnn(C3CCC3)c2)CN1C(=O)c1ccccc1-n1nccn1 [Example 8, (2R,5S)-5-(1-cyclobutyl-1H-pyrazol-4-yl)-2-methyl-1-{[2-(2H-1,2,3-triazol-2-yl)phenyl]carbonyl}piperidine] | 49 | 3440
C[C@@H]1CC[C@@H](c2cnn(CC(F)(F)F)c2)CN1C(=O)c1ccccc1-n1nccn1 [Example 5, (2R,5S)-2-methyl-1-{[2-(2H-1,2,3-triazol-2-yl)phenyl]carbonyl}-5-[1-(2,2,2-trifluoroethyl)-1H-pyrazol-4-yl]piperidine] | 75 | > 10000
CC(C)n1cc([C@@H]2CC[C@@H](C)N(C(=O)c3ccc(F)cc3-n3nccn3)C2)cn1 [Example 15, (2R,5S)-1-{[4-fluoro-2-(2H-1,2,3-triazol-2-yl)phenyl]carbonyl}-2-methyl-5-[1-(1-methylethyl)-1H-pyrazol-4-yl]piperidine] | 113 | > 10000
CC(C)n1cc([C@@H]2CC[C@@H](C)N(C(=O)c3ccccc3-n3nccn3)C2)cn1 [Example 2, (2R,5S)-2-methyl-5-[1-(1-methylethyl)-1H-pyrazol-4-yl]-1-1{[2-(2H-1,2,3-triazol-2-yl)phenyl]carbonyl}piperidine] | 34 | 3410
COC(=O)C(C)(C)n1cc([C@@H]2CC[C@@H](C)N(C(=O)c3ccccc3-n3nccn3)C2)cn1 [Example 7, methyl 2-methyl-2-{4-[(3S,6R)-6-methyl-1-{[2-(2H-1,2,3-triazol-2-yl)phenyl]carbonyl}piperidin-3-yl]-1H-pyrazol-1-yl}propanoate] | 46 | 3050
CCn1cc([C@@H]2CC[C@@H](C)N(C(=O)c3ccccc3-n3nccn3)C2)cn1 [Example 1, (2R,5S)-5-(1-Ethyl-1H-pyrazol-4-yl)-2-methyl-1-{[2-(2H-1,2,3-triazol-2-yl)phenyl]carbonyl}piperidine] | 139 | > 10000
C[C@@H]1CC[C@@H](c2cnn(CC(C)(C)O)c2)CN1C(=O)c1ccccc1-n1nccn1 [Example 10, 2-Methyl-1-{4-[(3S,6R)-6-methyl-1-{[2-(2H-1,2,3-triazol-2-yl)phenyl]carbonyl}piperidin-3-yl]-1H-pyrazol-1-yl}propan-2-ol] | 197 | > 10000
CC(C)n1cc([C@@H]2CC[C@@H](C)N(C(=O)c3ccsc3-n3nccn3)C2)cn1 [Example 12, (2R,5S)-2-Methyl-5-[1-(1-methylethyl)-1H-pyrazol-4-yl]-1-{[2-(2H-1,2,3-triazol-2-yl)thiophen-3-yl]carbonyl}piperidine] | 301 | > 10000
CC(C)n1cc([C@@H]2CC[C@@H](C)N(C(=O)c3cscc3-n3nccn3)C2)cn1 [Example 14, (2R,5S)-2-methyl-5-[1-(1-methylethyl)-1H-pyrazol-4-yl]-1-{[4-(2H-1,2,3-triazol-2-yl)thiophen-3-yl]carbonyl}piperidine] | 430 | > 10000
